Reference: patent publication US9611267B2, “Substituted tricyclic compounds as FGFR inhibitors” (Incyte Corporation, priority 2012, dated 2017)

What was measured:
Format in all cases: biochemical
FGFR2 = FGFR2 (Homo sapiens (Human), UniProt P21802); assay: FGFR enzymatic assay (FRET peptide phosphorylation), FGFR2; conditions: FGFR2 enzyme 0.01 nM, ATP 100 μM
In short: (§1)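 IC50 values were obtained from variable-slope sigmoidal dose-response fitting of a FRET read-out of peptide phosphorylation. The buffer, described for FGFR3, was 50 mM HEPES pH 7.5 with MgCl2, EGTA, Tween-20 and DTT.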

FGFR1 = FGFR1 (Homo sapiens (Human), UniProt P11362); assay: FGFR enzymatic assay (FRET peptide phosphorylation), FGFR1; conditions: FGFR1 enzyme 0.02 nM, ATP 210 μM
In short: as §1

FGFR3 = FGFR3 (Homo sapiens (Human), UniProt P22607); assay: FGFR enzymatic assay (FRET peptide phosphorylation), FGFR3; conditions: FGFR3 enzyme (Millipore), ATP 140 μM
In short: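 After 5-10 min pre-incubation of FGFR3 with serially diluted compound in pH 7.5 HEPES/MgCl2/EGTA/DTT buffer, the reaction proceeded 1 hr at 25° C. Phosphorylated peptide was detected by FRET, and IC50 was fitted with a variable-slope sigmoid.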

Chain of FGFR3 (P22607 23-806): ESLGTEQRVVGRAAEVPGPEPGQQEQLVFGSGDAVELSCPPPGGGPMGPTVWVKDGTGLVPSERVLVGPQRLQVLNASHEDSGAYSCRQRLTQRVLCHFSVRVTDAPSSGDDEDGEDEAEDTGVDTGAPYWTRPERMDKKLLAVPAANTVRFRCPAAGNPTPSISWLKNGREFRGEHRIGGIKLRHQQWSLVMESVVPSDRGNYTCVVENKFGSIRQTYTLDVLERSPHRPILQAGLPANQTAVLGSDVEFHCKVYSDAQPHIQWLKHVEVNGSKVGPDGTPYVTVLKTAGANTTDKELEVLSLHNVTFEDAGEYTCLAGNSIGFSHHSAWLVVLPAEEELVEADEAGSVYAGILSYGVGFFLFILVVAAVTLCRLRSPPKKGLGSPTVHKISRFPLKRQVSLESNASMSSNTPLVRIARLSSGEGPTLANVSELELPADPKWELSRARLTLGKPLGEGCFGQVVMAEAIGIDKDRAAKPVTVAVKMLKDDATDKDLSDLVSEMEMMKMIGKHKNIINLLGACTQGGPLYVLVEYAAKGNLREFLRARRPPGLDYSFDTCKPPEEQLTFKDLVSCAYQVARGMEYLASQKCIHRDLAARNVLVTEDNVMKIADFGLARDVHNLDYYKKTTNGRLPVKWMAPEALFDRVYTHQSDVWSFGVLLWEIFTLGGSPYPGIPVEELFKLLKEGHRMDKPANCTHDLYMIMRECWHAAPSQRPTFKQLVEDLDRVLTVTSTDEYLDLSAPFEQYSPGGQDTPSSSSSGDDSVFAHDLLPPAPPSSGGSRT
Chain of FGFR2 (P21802 22-821): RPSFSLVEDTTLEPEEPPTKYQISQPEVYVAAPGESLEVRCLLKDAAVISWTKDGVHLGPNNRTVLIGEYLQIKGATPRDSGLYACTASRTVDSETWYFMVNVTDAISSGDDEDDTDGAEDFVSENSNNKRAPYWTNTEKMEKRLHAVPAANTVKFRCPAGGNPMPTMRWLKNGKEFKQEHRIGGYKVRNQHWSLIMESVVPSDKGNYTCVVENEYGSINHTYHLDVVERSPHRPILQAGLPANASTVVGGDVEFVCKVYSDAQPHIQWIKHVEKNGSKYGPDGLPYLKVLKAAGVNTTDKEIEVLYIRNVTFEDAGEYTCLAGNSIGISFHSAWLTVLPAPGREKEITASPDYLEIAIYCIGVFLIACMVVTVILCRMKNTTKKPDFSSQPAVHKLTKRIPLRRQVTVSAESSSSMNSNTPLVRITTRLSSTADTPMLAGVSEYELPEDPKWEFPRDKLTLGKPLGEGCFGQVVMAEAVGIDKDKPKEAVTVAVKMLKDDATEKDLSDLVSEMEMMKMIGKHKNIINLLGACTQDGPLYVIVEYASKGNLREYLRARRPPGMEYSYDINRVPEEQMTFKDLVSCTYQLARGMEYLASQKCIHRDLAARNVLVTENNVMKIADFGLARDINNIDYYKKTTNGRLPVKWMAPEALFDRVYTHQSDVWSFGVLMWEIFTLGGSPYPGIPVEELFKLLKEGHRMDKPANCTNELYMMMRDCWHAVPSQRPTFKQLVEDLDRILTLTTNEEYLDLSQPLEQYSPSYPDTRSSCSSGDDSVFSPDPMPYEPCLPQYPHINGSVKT
Chain of FGFR1 (P11362 22-822): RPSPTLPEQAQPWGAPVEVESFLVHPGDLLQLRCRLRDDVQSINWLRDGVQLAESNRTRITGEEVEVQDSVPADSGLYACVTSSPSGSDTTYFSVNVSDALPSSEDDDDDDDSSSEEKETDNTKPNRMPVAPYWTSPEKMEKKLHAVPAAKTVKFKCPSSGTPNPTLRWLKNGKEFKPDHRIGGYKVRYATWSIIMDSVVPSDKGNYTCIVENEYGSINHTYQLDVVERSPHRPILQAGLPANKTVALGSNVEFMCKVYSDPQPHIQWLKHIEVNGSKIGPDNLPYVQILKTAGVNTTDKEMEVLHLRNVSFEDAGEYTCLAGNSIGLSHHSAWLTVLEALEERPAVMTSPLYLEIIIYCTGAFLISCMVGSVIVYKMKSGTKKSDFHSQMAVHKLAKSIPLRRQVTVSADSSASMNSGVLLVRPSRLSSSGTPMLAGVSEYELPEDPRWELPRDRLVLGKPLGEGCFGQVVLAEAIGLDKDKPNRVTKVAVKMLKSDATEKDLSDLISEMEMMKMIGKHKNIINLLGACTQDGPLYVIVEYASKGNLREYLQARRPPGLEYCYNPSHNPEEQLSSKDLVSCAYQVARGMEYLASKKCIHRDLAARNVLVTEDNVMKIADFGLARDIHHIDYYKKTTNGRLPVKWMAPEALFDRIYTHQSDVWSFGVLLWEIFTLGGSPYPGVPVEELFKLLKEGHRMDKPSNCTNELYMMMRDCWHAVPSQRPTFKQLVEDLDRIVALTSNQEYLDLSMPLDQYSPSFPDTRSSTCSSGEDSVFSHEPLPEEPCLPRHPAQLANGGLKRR

Compound	IC50 (FGFR2) [nM]	IC50 (FGFR1) [nM]	IC50 (FGFR3) [nM]
COc1cc(OC)c(F)c(N2Cc3cnc4[nH]c(CCN5CCC5)cc4c3N(C)C2=O)c1F [Example 115, 8-(2-azetidin-1-ylethyl)-3-(2,6-difluoro-3,5-dimethoxyphenyl)-1-methyl-1,3,4,7-tetrahydro-2H-pyrrolo[3′,2′:5,6]pyrido[4,3-d]pyrimidin-2-one]	< 100	< 100	< 100
COc1cc(OC)c(F)c(N2Cc3cnc4[nH]ccc4c3NC2=O)c1F [Example 103, 3-(2,6-difluoro-3,5-dimethoxyphenyl)-1,3,4,7-tetrahydro-2H-pyrrolo[3′,2′:5,6]pyrido[4,3-d]pyrimidin-2-one]	< 100	< 100	< 100
COc1cc(OC)c(F)c(N2Cc3cnc4[nH]c(CN5CCN(C)CC5)cc4c3N(c3ccncc3)C2=O)c1F [Example 195, 3-(2,6-difluoro-3,5-dimethoxyphenyl)-8-[(4-methylpiperazin-1-yl)methyl]-1-pyridin-4-yl-1,3,4,7-tetrahydro-2H-pyrrolo[3′,2′:5,6]pyrido[4,3-d]pyrimidin-2-one]	< 100	< 100	< 100
COc1cc(OC)c(F)c(N2Cc3cnc4[nH]nc(CCO)c4c3N(C)C2=O)c1F [Example 56, 3-(2,6-Difluoro-3,5-dimethoxyphenyl)-9-(2-hydroxyethyl)-1-methyl-1,3,4,7-tetrahydro-2H-pyrazolo[4′,3′:5,6]pyrido[4,3-d]pyrimidin-2-one]	< 100	< 100	< 100
COc1cc(OC)c(F)c(N2Cc3cnc4[nH]c(CCN5CCN(C)CC5)cc4c3C(C)(C)C2=O)c1F [Example 160, 7-(2,6-difluoro-3,5-dimethoxyphenyl)-9,9-dimethyl-2-[2-(4-methylpiperazin-1-yl)ethyl]-3,6,7,9-tetrahydro-8H-pyrrolo[2,3-c]-2,7-naphthyridin-8-one]	< 100	< 100	< 100
COc1cc(OC)c(F)c(N2Cc3cnc4[nH]c(CN5CC[C@@H](C#N)C5)cc4c3N(C)C2=O)c1F [Example 209, (3R)-1-{[3-(2,6-difluoro-3,5-dimethoxyphenyl)-1-methyl-2-oxo-2,3,4,7-tetrahydro-1H-pyrrolo[3′,2′:5,6]pyrido[4,3-d]pyrimidin-8-yl]methyl}pyrrolidine-3-carbonitrile]	< 100	< 100	< 100
COc1cc(OC)c(Cl)c(N2Cc3cnc4[nH]ccc4c3N(c3cnn(C)c3)C2=O)c1F [Example 107, 3-(2-chloro-6-fluoro-3,5-dimethoxyphenyl)-1-(1-methyl-1H-pyrazol-4-yl)-1,3,4,7-tetrahydro-2H-pyrrolo[3′,2′:5,6]pyrido[4,3-d]pyrimidin-2-one]	< 100	< 100	< 100
COc1cc(OC)c(Cl)c(N2Cc3cnc4[nH]ncc4c3N(C3CCC3)C2=O)c1F [Example 102, 3-(2-chloro-6-fluoro-3,5-dimethoxyphenyl)-1-cyclobutyl-1,3,4,7-tetrahydro-2H-pyrazolo[4′,3′:5,6]pyrido[4,3-d]pyrimidin-2-one]	< 100	< 100	< 100
CCN1CCN(Cc2cc3c4c(cnc3[nH]2)CN(c2c(F)c(OC)cc(OC)c2F)C(=O)N4c2ccc(F)cc2)CC1 [Example 191, 3-(2,6-difluoro-3,5-dimethoxyphenyl)-1-(4-fluorophenyl)-8-[(4-ethylpiperazin-1-yl)methyl]-1,3,4,7-tetrahydro-2H-pyrrolo[3′,2′:5,6]pyrido[4,3-d]pyrimidin-2-one]	< 100	< 100	< 100
COc1cc(OC)c(F)c(N2Cc3cnc4[nH]c(CN5CCOCC5)cc4c3N(CCF)C2=O)c1F [Example 232, 3-(2,6-difluoro-3,5-dimethoxyphenyl)-1-(2-fluoroethyl)-8-(morpholin-4-ylmethyl)-1,3,4,7-tetrahydro-2H-pyrrolo[3′,2′:5,6]pyrido[4,3-d]pyrimidin-2-one]	< 100	< 100	< 100
COc1cc(OC)c(F)c(N2Cc3cnc4[nH]ncc4c3N(Cc3cccc(F)n3)C2=O)c1F [Example 216, 3-(2,6-difluoro-3,5-dimethoxyphenyl)-1-[(6-fluoropyridin-2-yl)methyl]-1,3,4,7-tetrahydro-2H-pyrazolo[4′,3′:5,6]pyrido[4,3-d]pyrimidin-2-one]	< 100	< 100	< 100
COc1cc(OC)c(F)c(N2Cc3cnc4[nH]ncc4c3N(C)C2=O)c1F [Example 51, 3-(2,6-Difluoro-3,5-dimethoxyphenyl)-1-methyl-1,3,4,7-tetrahydro-2H-pyrazolo[4′,3′:5,6]pyrido[4,3-d]pyrimidin-2-one]	< 100	< 100	< 100
COc1cc(OC)c(F)c(N2Cc3cnc4[nH]c(CN5CCN(C)CC5)cc4c3N(c3cccc(F)c3)C2=O)c1F [Example 213, 3-(2,6-difluoro-3,5-dimethoxyphenyl)-1-(3-fluorophenyl)-8-[(4-methylpiperazin-1-yl)methyl]-1,3,4,7-tetrahydro-2H-pyrrolo[3′,2′:5,6]pyrido[4,3-d]pyrimidin-2-one]	< 100	< 100	< 100
COc1cc(OC)c(F)c(N2Cc3cnc4[nH]nc(C)c4c3N(C3CC3)C2=O)c1F [Example 97, 1-cyclopropyl-3-(2,6-difluoro-3,5-dimethoxyphenyl)-9-methyl-1,3,4,7-tetrahydro-2H-pyrazolo[4′,3′:5,6]pyrido[4,3-d]pyrimidin-2-one]	< 100	< 100	< 100
COc1cc(OC)c(F)c(N2Cc3cnc4[nH]ncc4c3N(c3cccc4cccnc34)C2=O)c1F [Example 96, 3-(2,6-difluoro-3,5-dimethoxyphenyl)-1-quinolin-8-yl-1,3,4,7-tetrahydro-2H-pyrazolo[4′,3′:5,6]pyrido[4,3-d]pyrimidin-2-one]	< 100	< 100	< 100

The remaining lines, values ahead:

IC50 (FGFR2) [nM]	IC50 (FGFR1) [nM]	IC50 (FGFR3) [nM]	Compound
< 100	< 100	< 100	COc1cc(OC)c(F)c(N2Cc3cnc4c(c3N(C)C2=O)CC(=O)N4)c1F [Example 37, 3-(2,6-Difluoro-3,5-dimethoxyphenyl)-1-methyl-3,4,7,9-tetrahydro-1H-pyrrolo[3′,2′:5,6]pyrido[4,3-d]pyrimidine-2,8-dione]
< 100	< 100	< 100	COc1cc(OC)c(Cl)c(N2Cc3cnc4[nH]c(C#N)cc4c3N(C)C2=O)c1 [Example 16, 3-(2-Chloro-3,5-dimethoxyphenyl)-1-methyl-2-oxo-2,3,4,7-tetrahydro-1H-pyrrolo[3′,2′:5,6]pyrido[4,3-d]pyrimidine-8-carbonitrile]
< 100	< 100	< 100	CCN1C(=O)N(c2c(F)c(OC)cc(OC)c2F)Cc2cnc3[nH]nc(C)c3c21 [Example 98, 3-(2,6-difluoro-3,5-dimethoxyphenyl)-1-ethyl-9-methyl-1,3,4,7-tetrahydro-2H-pyrazolo[4′,3′:5,6]pyrido[4,3-d]pyrimidin-2-one]
< 100	< 100	< 100	COc1cc(OC)c(F)c(N2Cc3cnc4[nH]c(CN5CCN(C)CC5)cc4c3N(C3CC3)C2=O)c1F [Example 187, 1-cyclopropyl-3-(2,6-difluoro-3,5-dimethoxyphenyl)-8-[(4-methylpiperazin-1-yl)methyl]-1,3,4,7-tetrahydro-2H-pyrrolo[3′,2′:5,6]pyrido[4,3-d]pyrimidin-2-one]
< 100	< 100	< 100	COc1cc(OC)c(F)c(N2Cc3cnc4[nH]c(C(=O)N(C)C)cc4c3N(C)C2=O)c1F [Example 35, 3-(2,6-Difluoro-3,5-dimethoxyphenyl)-N,N,1-trimethyl-2-oxo-2,3,4,7-tetrahydro-1H-pyrrolo[3′,2′:5,6]pyrido[4,3-d]pyrimidine-8-carboxamide]
< 100	< 100	< 100	COc1cc(OC)c(F)c(N2Cc3cnc4[nH]ccc4c3N(CCO)C2=O)c1F [Example 44, 3-(2,6-Difluoro-3,5-dimethoxyphenyl)-1-(2-hydroxyethyl)-1,3,4,7-tetrahydro-2H-pyrrolo[3′,2′:5,6]pyrido[4,3-d]pyrimidin-2-one]
< 100	< 100	< 100	COc1cc(OC)c(F)c(N2Cc3cnc4[nH]ncc4c3N(c3cnn(CC(C)(C)O)c3)C2=O)c1F [Example 173, 3-(2,6-difluoro-3,5-dimethoxyphenyl)-1-[1-(2-hydroxy-2-methylpropyl)-1H-pyrazol-4-yl]-1,3,4,7-tetrahydro-2H-pyrazolo[4′,3′:5,6]pyrido[4,3-d]pyrimidin-2-one]
< 100	< 100	< 100	COc1cc(OC)c(F)c(N2Cc3cnc4[nH]nc(C#N)c4c3N(C)C2=O)c1F [Example 53, 3-(2,6-Difluoro-3,5-dimethoxyphenyl)-1-methyl-2-oxo-2,3,4,7-tetrahydro-1H-pyrazolo[4′,3′:5,6]pyrido[4,3-d]pyrimidine-9-carbonitrile]
< 100	< 100	< 100	CCN1C(=O)N(c2cc(OC)cc(OC)c2)Cc2cnc3[nH]ccc3c21 [Example 3, 3-(3,5-Dimethoxyphenyl)-1-ethyl-1,3,4,7-tetrahydro-2H-pyrrolo[3′,2′:5,6]pyrido[4,3-d]pyrimidin-2-one]
< 100	< 100	< 100	COc1cc(OC)cc(N2Cc3cnc4[nH]ccc4c3N(CC3CC3)C2=O)c1 [Example 5, 1-(Cyclopropylmethyl)-3-(3,5-dimethoxyphenyl)-1,3,4,7-tetrahydro-2H-pyrrolo[3′,2′:5,6]pyrido[4,3-d]pyrimidin-2-one]
